From a melting point compilation (Tetko et al.; mined from patent text by program, amines drawn as free bases though some values may be those of a salt)

Work on `CC(C)n1nc(-c2nc(Br)c(N)nc2-c2ccccc2)ccc1=O` yielded a melting point of 204 to 206 °C.
Work on `O=C1Nc2cccc(C(F)(F)F)c2C(=O)N2CCC[C@@H]12` yielded a melting point of 176 to 178 °C.
For `CCCOc1c(OCc2ccccc2)cc(C2CCC(=O)O2)cc1S(=O)(=O)CCC` (stereo unspecified), the melting point was 95 to 96 °C.
Molecule `CC1CCCN(C(=O)c2ccc([N+](=O)[O-])cc2)C1` (stereo unspecified) has a melting point of 70.2 to 71.3 °C.
With `NC1=NS(=O)(=O)N=C1NCCCN(Cc1ccccc1)c1ccccn1` the melting point was 192 to 193 °C.
`COC(=O)CCn1c(=O)n(CCN2CCN(c3ccccc3OC)CC2)c(=O)c2c(C)scc21` showed a melting point of 127 to 128 °C.
Work on `CC(=O)Nc1ccc(S(=O)(=O)Cc2cccc(OC(C)=O)c2)c2ccc(C#N)nc12` yielded a melting point of 229 to 231 °C.
Molecule `CCNc1nc(Oc2ccccc2)nc2nc(-c3ccco3)nn12` has a melting point of 127 to 129 °C.
With `NC(CO)(CO)CCCCCCCCCCCCCc1ccccc1` the melting point was 61 to 64 °C.
In the case of `CCOC(=O)CNc1ncccc1NC(=O)c1ccccn1`, the melting point is reported as 98 to 100 °C.
In the case of `Oc1cc(OCc2ccccc2)cc(OCc2ccccc2)c1C/C=C/c1ccccc1`, the melting point is reported as 76 to 78 °C.
For `O=c1[nH]ncnc2c1ccc1ncnc12`, the melting point was 266 to 268 °C.
With `Cc1cccc(-c2nc(CCOc3ccc(/C=C/C=O)cc3)c(C)o2)c1` the melting point was 110 to 111 °C.
`O=C(O)c1cc(F)c(F)c(I)c1F` gave a melting point of 122 to 124 °C.
Molecule `O=C(Nc1cnc(-n2nc(C(F)(F)F)cc2C2CC2)nc1)c1c(F)cccc1F` has a melting point of 280 to 281 °C.
`Cc1ccccc1NO` gave a melting point of 38 to 39 °C.
Molecule `CC1(C)Oc2cc3nc(SCc4ccccn4)[nH]c3cc2O1` has a melting point of 210 to 211 °C.
Work on `N#Cc1cnn(-c2ccc(Cl)nn2)c1N` yielded a melting point of 250 to 252 °C.
With `COc1ccc2[nH]c(C(=O)N3CC(CCl)c4c3cc(O)c3ncccc43)cc2c1` (stereo unspecified) the melting point was 224 to 227 °C.
`CS(=O)(=O)c1ccc(N2CC(O)(C(F)(F)F)N=C2c2ccncc2)cc1` (stereo unspecified) showed a melting point of 219 °C.
Work on `CCCC(=O)c1cnn(C)c1S(N)(=O)=O` yielded a melting point of 97 to 99 °C.
Molecule `O=C1Cc2cc([N+](=O)[O-])ccc2Sc2ccccc21` has a melting point of 171 to 172 °C.
Work on `COC(=O)CC[C@H](NC(=O)c1ccc(I)cc1F)C(=O)OC` yielded a melting point of 94 to 96 °C.
For `CON=CC(C)(C)NC(=O)c1c(Cl)cccc1C(=O)Nc1ccc(OC(F)(F)F)cc1C`, the melting point was 197 °C.
Work on `CCc1cccc(CC(=O)O)c1OCCCc1cn(-c2ccc(C(F)(F)F)cn2)nc1C(CC)CC` yielded a melting point of 130 to 131 °C.
In the case of `O=S(=O)(Cl)c1ccc(Nc2nccc(Cl)n2)cc1`, the melting point is reported as 192 to 195 °C.
For `CCN(CC)C(=O)Oc1ccc2ccccc2c1`, the melting point was 51 to 53 °C.
Molecule `CNC(=NS(C)(=O)=O)NCCCCCc1nc(N)nc(N)n1` has a melting point of 194 to 195 °C.
In the case of `CCCCCCCNC(=O)Nc1ccc(N2CCOCC2)cc1C(=O)NCC1CCN(C(c2ccccc2)c2ccccc2)CC1`, the melting point is reported as 153 to 155 °C.
In the case of `Cn1ncc(C(=O)Nc2ccc(F)cc2Cl)c1N`, the melting point is reported as 176 to 177 °C.
For `Cc1nc2c3c(c(C(=O)N4CC4)cc2n1C)CCC(c1ccccc1)O3` (stereo unspecified), the melting point was 201 to 204 °C.
Molecule `CNC(=S)C1=C(O)C2(CCOCC2)Oc2ccc([N+](=O)[O-])cc21` has a melting point of 217 to 218 °C.
`O=C(Cc1cc(Cl)cc(Cl)c1)NC1N=C(C2CC2)c2ccccc2N(CC(F)(F)F)C1=O` (single isomer, unassigned; (+)) gave a melting point of 152 to 153 °C.
Work on `Cc1noc(C)c1-c1ccc(OC2SCC(O)C(O)C2O)c(F)c1` (stereo unspecified) yielded a melting point of 140 °C.
For `Cc1noc(NS(=O)(=O)c2sccc2-c2ccc3c(c2)OCO3)c1Br`, the melting point was 183 to 186 °C.
Molecule `COc1cc(COc2nn(-c3ccccc3)cc2-c2cnco2)ccc1OCc1nc(-c2ccco2)oc1C` has a melting point of 153 to 154 °C.
Work on `O=C1C(=O)c2ccc(Br)cc2C2=C1SCC1(CCN(Cc3ccc(F)cc3)CC1)O2` yielded a melting point of 210 to 211 °C.
Work on `O=C(O)c1ncn2c1[C@@H]1CCN1C(=O)c1c-2ccc(F)c1Cl` yielded a melting point of 225 to 226 °C.
Molecule `O=C(O)Cn1cc(C(=O)O)c(=O)c2cc(O)ccc(=O)c21` has a melting point of over 250 °C.
Work on `CCOC(=O)NC(C(=O)NN(Cc1ccc(-c2nccs2)cc1)CC(O)C(Cc1ccccc1)NC(=O)C(NC(=O)OC)C(C)CC)C(C)C` (stereo unspecified) yielded a melting point of 209 to 211 °C.
For `CC(C)(CNC(=O)C(O)CO)c1ccc(C(=O)Nc2cn3cc(Cl)ccc3n2)cc1` (stereo unspecified), the melting point was 228 to 229 °C.
In the case of `COC(=O)c1ccc(-c2nc(-c3ccc(C(F)(F)F)cc3)no2)cc1`, the melting point is reported as 177 to 178 °C.
Work on `O=c1oc2c(c(O)c1C(c1ccccc1)C1CC1)CCCCC2C(O)C1CC1` (stereo unspecified) yielded a melting point of 88 to 90 °C.
In the case of `Cc1nc(-n2ccc(OCc3ccc(C(F)(F)F)o3)cc2=O)sc1C(=O)NCc1cccnc1`, the melting point is reported as 240 to 242 °C.
For `Cc1cc(O)cc(C)c1-c1ccccc1`, the melting point was 128 to 130 °C.
Work on `CS(=O)(=O)Nc1cc([C@@H](O)CNC2CCN(c3ccc(S(=O)(=O)NCC(=O)O)cc3)CC2)ccc1O` yielded a melting point of 170 to 172 °C.
`CCOCC1OC(n2c(Cl)nc3cc(Cl)c(Cl)cc32)C(O)C1O` (stereo unspecified) showed a melting point of 88 to 90 °C.
For `COC(C)(C)C(=NO)n1ccnc1`, the melting point was 155 to 160 °C.
`CC(C)(C)NS(=O)(=O)c1sc([Si](C)(C)C)cc1C(F)=C(F)C(F)(F)F` showed a melting point of 92 to 94 °C.
With `Cn1ncc(C(=O)N2CC(F)C2)c1C(=O)Nc1ccn2nc(N3CCOCC3)nc2c1` the melting point was 247 to 250 °C.
With `CC(C)(C)[Si](C)(C)O[C@@H]1CO[C@H](c2cccnc2)[C@@H]1CCC(=O)O` the melting point was 93 to 94 °C.
For `CC(C)c1ccc(CCNc2ncnc3ncccc23)cc1`, the melting point was 200 to 203 °C.
`COc1ccc2ccccc2c1C1OC(=O)NC1=O` (stereo unspecified) gave a melting point of 199 to 201 °C.
Work on `CC1(C)Oc2c(Cl)cc(Cl)cc2[C@@H](Br)[C@@H]1O` (relative stereo) yielded a melting point of 46 °C.
For `COC(=O)c1cccc2c1CCC2C#N` (stereo unspecified), the melting point was 76.5 to 77.5 °C.
For `Nc1cc(C(F)(F)F)cnc1Cl`, the melting point was 94 to 95 °C.
For `CSc1ncc(O)c(O)n1`, the melting point was 213 to 215 °C.
Molecule `Cc1cccc(NC(=O)CN2CCN(c3ccccc3[N+](=O)[O-])CC2)c1` has a melting point of 172 to 175 °C.
`CCc1nc2c(C)cc(C)nc2n1Cc1ccc(C2(C(=O)O)Cc3ccccc3C2)s1` gave a melting point of 243 to 244 °C.
`COC(=O)c1cc(C(C)=O)cs1` gave a melting point of 94 to 96 °C.
Work on `COC(=O)c1cc(Cl)ccc1NC(=O)c1cc(OC)c(OC)c(OC)c1` yielded a melting point of 179 to 180 °C.
With `COc1ccc2cc(C(C)C(=O)OCc3ccc(OC(=O)OCC[Si](C)(C)C)cc3)ccc2c1` (stereo unspecified) the melting point was 58 to 59 °C.
`CC(C)NCCNc1ccc2ncc(Br)n2n1` gave a melting point of 87 to 88 °C.
`CCC1(CCC(=O)OC(C)(C)C)CCCN2CCc3c([nH]c4ccccc34)C21` (stereo unspecified) showed a melting point of 194 to 195 °C.
`CCc1nc(N)nc(N)c1CCCc1cc(Cl)c(Cl)cc1Cl` gave a melting point of 168 to 182 °C.
For `CN1c2ccc([N+](=O)[O-])cc2CS1(=O)=O`, the melting point was 214 to 216 °C.
`COP(=O)(OC)c1cc(O)c2c(=O)cc(-c3ccccc3)oc2c1` showed a melting point of 219 °C.
Molecule `NC1C(=O)N(CC(O)C(F)(F)F)c2ccccc2-c2ccccc21` (stereo unspecified) has a melting point of 192 to 194 °C.
In the case of `C=C(CC(C)C)C(=O)NCC(=O)O`, the melting point is reported as 73 to 80 °C.
Work on `C#CC1(OC(=O)CC)C(COC(=O)c2ccc(Cl)cc2)OC(n2ccc(=O)[nH]c2=O)C1OC(=O)CC` (stereo unspecified) yielded a melting point of 208 to 210 °C.
With `CCOC(=O)COc1ccc(C(=O)Nc2ccccc2Sc2ccccc2-c2nnn[nH]2)cc1OC` the melting point was 179 to 181 °C.
In the case of `CN(C(=O)OC(C)(C)C)[C@H]1CC[C@H](/C=C/CCl)CC1`, the melting point is reported as 42.5 to 43.9 °C.
`CC(=O)N1CCCCNC1=NC(c1ccccc1)c1ccccc1` gave a melting point of 250 to 252 °C.
With `COc1ccc(C(=O)Nc2c(Cl)cncc2Cl)c2c1[nH]c1ccc(Cl)cc12` the melting point was over 359 °C.
`CC(C)(C)Cc1ccc(C(=O)O)cc1` gave a melting point of 191 to 193 °C.
With `Cc1oc(-c2cc3ccccc3s2)nc1COc1ccc(CCCn2ccnc2)cc1` the melting point was 142 to 143 °C.
`CNC(=S)N(C)c1nccs1` showed a melting point of 68 to 69 °C.
Molecule `O=C(O)c1cc(OCCCOc2ccccc2-c2ccccc2)cc(OCCCOc2ccccc2-c2ccccc2)c1` has a melting point of 110 to 113 °C.
`COC(=O)C(C)c1ccc(OCCNC(=O)C2Cc3ccccc3N2S(=O)(=O)c2ccc(-c3cc(C(F)(F)F)ccc3Cl)cc2)cc1` (stereo unspecified) showed a melting point of 55 to 63 °C.
With `O=C(O)CCOc1cccc(/C=C/c2nc3ccccc3s2)c1` the melting point was 177 to 178 °C.
Molecule `Cc1cc(-c2ccc(C(F)(F)F)cc2)cc(-c2cccc(-c3cccc(NS(=O)(=O)N4CCOCC4)c3)n2)n1` has a melting point of 191 °C.
Work on `Nc1cccc2c1C(Cc1ccnc(F)c1)(Cc1ccnc(F)c1)c1ccccc1-2` yielded a melting point of 182 to 184 °C.
For `C=CCC1(Cc2ncn(C(c3ccccc3)(c3ccccc3)c3ccccc3)c2C)CCc2c(C)c3ccccc3n2C1=O` (stereo unspecified), the melting point was 83 to 85 °C.
For `CC(C)=NN=C1NCC(=O)N1`, the melting point was 182 to 187 °C.
`CCCc1ccc(S(=O)(=O)Nc2ccc3nc(C)oc3c2)cc1` showed a melting point of 102 °C.
With `COCCC(=O)OC1(C(=O)CO)CCC2C3CCC4=CC(=O)CCC4(C)C3C(O)CC21C` (stereo unspecified) the melting point was 172 °C.
`CS(=O)(=O)OC[C@@H]1CCC(=O)N1` showed a melting point of 72 to 74 °C.
For `Oc1ccc2c(c1)COc1cc3cc(O)ccc3cc1-2`, the melting point was 231 to 233 °C.
`N#Cc1ccc2c(c1)CCC1CC(=O)NN=C21` (stereo unspecified) gave a melting point of 292 to 295 °C.
For `CCc1c(C(=O)O)[nH]c2c1C(=O)CC(C)(C)C2`, the melting point was over 198 °C.
For `COc1ccc(-c2nc(CN(C)C)nc3sc(C)c(C)c23)cc1OC`, the melting point was 118 to 120 °C.
With `O=CNCN1CCCCCC1=O` the melting point was 48 °C.
`O=C(O)[C@H]1C=C[C@H](c2ccccc2)n2c(=O)n(CCS)c(=O)n21` (relative stereo) showed a melting point of 153 to 154 °C.
`CC(=O)Oc1ccc2c(c1)Cc1cc(OC(C)=O)ccc1-2` gave a melting point of 168 °C.
`CC(=O)Nc1cccc(C(=O)Nc2cccc3cc(Br)cnc23)c1` showed a melting point of 198 to 202 °C.
Work on `N#Cc1cnn2c(-c3cc(Cl)ccc3Cl)ccnc12` yielded a melting point of 202 to 204 °C.
Work on `C=C(C)CNc1cc(C)nc2cn[nH]c12` yielded a melting point of 161 to 164 °C.
Work on `CN(C)C1=NC2=NC3=C(CN(Cc4ccccc4)CC3=O)CN2N1` yielded a melting point of 279 to 281 °C.
`O=c1ccn(C2OC(CO)C(O)C2Br)c(=O)[nH]1` (stereo unspecified) gave a melting point of 194 to 195 °C.
Molecule `CN(C)C(=O)NCCNCC(O)COc1ccc(OCCOCC2CC2)cc1` (stereo unspecified) has a melting point of 86 °C.
`O=C(O)CCc1cccc(NC(=O)NCC(=O)N2[C@@H](c3ccccc3)CC[C@H]2c2ccccc2)c1` gave a melting point of 170 °C.
